Reference: patent publication US11672788B2, “Histone deacetylase inhibitors for immunomodulation in tumor microenvironment” (GREAT NOVEL THERAPEUTICS BIOTECH & MEDICALS CORPORATION, priority 2020, dated 2023)
≈ marks a conversion by molar mass, not a printed value. Entries after “also recorded” stand apart in the source; their conditions may differ.

Key:
[1] = test system: M10 cells; assay: Cell cycle arrest by PI flow cytometry; type: cell-based, human; conditions: M10, 12.5 μM, 72 h
Protocol: (§1) A PI/RNase staining assay (BD Bioscience™) was performed to reveal the presence of cell cycle arrest and apoptotic cells after treatment with GNTbm compounds, Chidamide and Entinostat. […] After treatment cells were harvested, fixed with 80% ethanol for 24 h, washed with 1×PBS and stained with PI/RNase for 15 min at room temperature. The cells were then analyzed using Flow Cytometer within 1 h.

[2] = test system: SW48 cells; assay: Cell cycle arrest by PI flow cytometry; type: cell-based, human; conditions: SW48, 3.125 μM, 72 h
Protocol: as §1

[3] = test system: MDA-MB-231 cells; assay: Cell cycle arrest by PI flow cytometry; type: cell-based, human; conditions: MDA-MB-231, 3.125 μM, 72 h
Protocol: as §1

[4] = biological target: HDAC3 (Homo sapiens (Human), UniProt O15379); assay: HDAC3 enzymatic kinetic assay; type: biochemical; conditions: 2 μM; 20 min, 40 min and 60 min
Protocol: HDAC3 enzymatic kinetic assay was performed according to standard Protocols (Fluorgenic HDAC3 assay kit, BPS Bioscience™). […] After incubation, assay developer was added to the samples and the absorbance was read at fluorogenic wavelength. The relative inhibition to HDAC3 activity in each sample was determined.

[5] = biological target: HDAC1 (Homo sapiens (Human), UniProt Q13547); assay: HDACs 1-11 enzymatic inhibition by BPS Bioscience
Protocol: HDAC assay was performed according to standard Protocols (Fluorgenic HDACs 1-11 assay kit, BPS Bioscience™). […] After 0.5 h, assay developer was added to the samples and the absorbance was read at fluorogenic wavelength. The relative inhibition to HDACs 1, 2, 3, 4, 5, 6, 7, 8, 9, and 11 activities was determined in each sample. […] All of the compounds were dissolved in DMSO. The serial dilution of the compounds was first performed in 100% DMSO with the highest concentration at 1 mM. Each intermediate compound dilution (in 100% DMSO) would then get directly diluted 10× fold into assay buffer for an intermediate dilution of 10% DMSO in HDAC assay buffer and 5 μl of the dilution was added to a 50 μl reaction so that the final concentration of DMSO is 1% in all of the reactions. […] Fluorescence intensity was measured at an excitation of 360 nm and an emission of 460 nm using a Tecan Infinite M1000 microplate reader. […] The fluorescent intensity data were analyzed using the computer software, Graphpad Prism. […] The percent activity in the presence of each compound was calculated according to the following equation: % activity=(F−Fb)/(Ft−Fb), where F=the fluorescent intensity in the presence of the compound. […] The IC50 value was determined by the concentration causing a half-maximal percent activity.

[6] = test system: M10 cells; assay: Cell apoptosis (sub-G1) by PI flow cytometry; type: cell-based, human; conditions: M10, 12.5 μM, 72 h
Protocol: as §1

[7] = test system: SW48 cells; assay: Cell apoptosis (sub-G1) by PI flow cytometry; type: cell-based, human; conditions: SW48, 6.25 μM, 72 h
Protocol: as §1

[8] = test system: MDA-MB-231 cells; assay: Cell apoptosis (sub-G1) by PI flow cytometry; type: cell-based, human; conditions: MDA-MB-231, 6.25 μM, 72 h
Protocol: as §1

[9] = Saturation solubility; type: physicochemical; conditions: water, thermodynamic from solid, ddH2O, 25° C., mean ± SD, BDL: Below detection limit
Protocol: Samples of 5 mg of compounds were added to 5 ml volumetric flasks containing ddH2O and shaken at 100 rpm in an incubator at 25° C. for 90 minutes. The resulting suspension was filtered through a 0.22 μm filter. The concentrations of compounds were determined spectrophotometrically at 256 nm. The saturation solubility of each sample was determined in triplicates and the mean value and standard deviation were reported.

Sequence of HDAC3 (O15379 whole entry): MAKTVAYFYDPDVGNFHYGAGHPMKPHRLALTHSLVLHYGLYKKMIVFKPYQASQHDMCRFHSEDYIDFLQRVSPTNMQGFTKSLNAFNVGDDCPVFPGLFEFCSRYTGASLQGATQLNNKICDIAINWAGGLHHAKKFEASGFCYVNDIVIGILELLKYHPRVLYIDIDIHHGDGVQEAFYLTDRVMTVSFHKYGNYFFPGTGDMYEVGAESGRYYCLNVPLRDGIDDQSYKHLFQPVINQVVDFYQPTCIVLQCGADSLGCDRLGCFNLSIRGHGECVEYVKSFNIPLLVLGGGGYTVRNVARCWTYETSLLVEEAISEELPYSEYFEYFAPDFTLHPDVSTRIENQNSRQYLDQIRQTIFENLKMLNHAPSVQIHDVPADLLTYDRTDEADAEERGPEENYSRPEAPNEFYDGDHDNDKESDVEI
Sequence of HDAC3 (Q9Y618 395-489 partner): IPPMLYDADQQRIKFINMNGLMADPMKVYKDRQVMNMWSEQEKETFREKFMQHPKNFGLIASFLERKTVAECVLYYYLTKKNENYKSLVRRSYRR
Sequence of HDAC1 (Q13547 whole entry): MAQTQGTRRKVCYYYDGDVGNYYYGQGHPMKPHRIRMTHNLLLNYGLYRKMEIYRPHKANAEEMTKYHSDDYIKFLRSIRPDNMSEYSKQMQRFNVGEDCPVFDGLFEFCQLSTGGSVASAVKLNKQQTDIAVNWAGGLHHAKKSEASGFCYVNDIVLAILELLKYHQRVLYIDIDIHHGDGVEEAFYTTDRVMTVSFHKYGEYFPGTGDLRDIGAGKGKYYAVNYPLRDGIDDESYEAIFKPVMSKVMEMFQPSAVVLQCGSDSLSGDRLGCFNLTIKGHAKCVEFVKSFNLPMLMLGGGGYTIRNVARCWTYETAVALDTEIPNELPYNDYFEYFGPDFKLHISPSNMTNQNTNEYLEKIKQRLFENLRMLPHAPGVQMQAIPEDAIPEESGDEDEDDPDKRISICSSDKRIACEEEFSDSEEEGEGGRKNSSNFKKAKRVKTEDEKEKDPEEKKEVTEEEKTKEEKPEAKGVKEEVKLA

## Cc1ccc(/C=C/CC(=O)Nc2ccc(C(=O)Nc3ccc(F)cc3N)nc2)cn1 [GNTbm-02, 5-((E)-4-(6-methylpyridin-3-yl)but-3-enamido)-N-(2-amino-4-fluorophenyl)pyridine-2-carboxamide]
[1]
  Cell cycle arrest: significantly induced cell cycle arrest of M10 cells in the G2/M phase
  Cells in G2/M phase: 16.2%
[2]
  Cell cycle arrest: significantly induced cell cycle arrest in G0/G1 phase
  Cells in G0/G1 phase: 76.9%
[3]
  Cell cycle arrest: significantly induced cell cycle arrest in G0/G1 phase
[4]
  Inhibition of HDAC 3 enzyme activities (kinetics): stronger inhibition of HDAC 3 enzyme activities than Entinostat; also recorded: stronger inhibition of HDAC 3 enzyme activities than GNTbm-01
[5]
  IC50: 390 nM
[6]
  Induction of apoptosis (sub-G1 phase): significantly induced apoptosis in M10 cells
[7]
  Induction of apoptosis (sub-G1 phase): significantly induced apoptosis
[8]
  Induction of apoptosis (sub-G1 phase): significantly induced apoptosis
[9]
  solubility at 90 min: 33.6 µg/mL (≈ 82.9 µM)
